Assay results reported in BigSolDB 2.1.

Details: in n-octanol

| solubility (mole fraction) (298.15 K) | solubility (mole fraction) (303.15 K) | solubility (mole fraction) (308.15 K) | solubility (mole fraction) (313.15 K) | solubility (mole fraction) (318.15 K) | solubility (mole fraction) (323.15 K) | solubility (mole fraction) (328.15 K) | solubility (mole fraction) (333.15 K) | Structure (SMILES) |
| --- | --- | --- | --- | --- | --- | --- | --- | --- |
| 8.8e-05 | 9.42e-05 | 0.000101 | 0.000108 | 0.000115 | 0.000123 | 0.000132 | 0.000141 | COc1cnc(NS(=O)(=O)c2ccc(N)cc2)nc1 |
| 0.000167 | 0.00018 | 0.000194 | 0.000213 | 0.000235 | 0.000261 | 0.000294 | 0.000332 | COc1cc(NS(=O)(=O)c2ccc(N)cc2)nc(OC)n1 |
|  | 8.68e-05 | 9.52e-05 | 0.000104 |  | 0.00012 | 0.000129 | 0.000136 | COc1cc(NS(=O)(=O)c2ccc(N)cc2)ncn1 |
